# Measurements as given in patent publication US10406122B2 (priority 2011, dated 2019).
# Where a name gives a salt, the structure may show the parent alone. Read-outs that look alike come from different tables or passages of the source.
# Tests used:
# [1] = test system: Beagle dogs; settings: in vivo
# [2] = tramadol […] [100 mg] p.o., single dose; cited from earlier work
# [3] = oral administration; cited from earlier work
# [4] = test system: postoperative patients; settings: cited from earlier work
# [5] = test system: experienced opioid abusers; settings: cited from earlier work
smiles,measurement,setting,value
"COc1cccc([C@]2(O)CCCC[C@H]2CN(C)C)c1 (racemic) [Tramadol, (±)cis-2-[(dimethylamino)methyl]-1-(3-methoxyphenyl) cyclohexanol hydrochloride]",adverse observations,[1]; dog,convulsions for two Beagle dogs
same,"toxicity in humans, conclusion from dog data",[1],not toxic
same,AUC,[2],2177 ± 722 ng·h/mL
same,Cmax,[2],274 ± 75 ng/mL
same,Tmax,[2],1.6 ± 0.5 h
same,t1/2,[2],5.9 ± 0.7 h
same,fertility and teratogenic effects,[3],no safety concerns with respect to fertility or teratogenic effects
same,serious adverse effects,[4]; loading doses up to 150 mg IV (Silvasti 2000),not associated with any serious adverse effects
same,serious adverse effects,"[4]; mean cumulative doses 449 to 868.3 mg over 24, 36 and 48 h",no serious adverse effects were observed
same,seizure,[5]; 200 mg IV administered over 5 minutes,No seizures were observed
same,seizure,[5]; 300 mg IV delivered over 2.5 minutes,seizure was observed
same,seizure,[5]; 700 mg IV administered over 1 minute,seizure was observed
same,ratings of feel drug effect compared to placebo,[5]; IV over 5 minutes,significantly increased ratings
same,ratings of liking / ARCI-MBG scale,"[5]; tramadol 100 and 200 mg IV, morphine 10 and 20 mg IV, over 5 minutes",neither dose of tramadol increased ratings
